Experimental data published in patent publication US20210246128A1, “BICYCLE TOPOISOMERASE I INHIBITING COMPOUNDS, PROCESS FOR PREPARATION AND USE THEREOF” (Council of Scientific & Industrial Research, priority 2018, published 2021).
Where two headings read alike, the source gives them in different places.

Columns and labels:
[1] = target: T1, recombinant human TopI (HTopI) (Homo sapiens, UniProt P11387); test: Gel based plasmid DNA relaxation assay with recombinant TopI (in vitro); type: biochemical; settings: recombinant human TopI, plasmid DNA relaxation
T1 sequence (P11387 1-765): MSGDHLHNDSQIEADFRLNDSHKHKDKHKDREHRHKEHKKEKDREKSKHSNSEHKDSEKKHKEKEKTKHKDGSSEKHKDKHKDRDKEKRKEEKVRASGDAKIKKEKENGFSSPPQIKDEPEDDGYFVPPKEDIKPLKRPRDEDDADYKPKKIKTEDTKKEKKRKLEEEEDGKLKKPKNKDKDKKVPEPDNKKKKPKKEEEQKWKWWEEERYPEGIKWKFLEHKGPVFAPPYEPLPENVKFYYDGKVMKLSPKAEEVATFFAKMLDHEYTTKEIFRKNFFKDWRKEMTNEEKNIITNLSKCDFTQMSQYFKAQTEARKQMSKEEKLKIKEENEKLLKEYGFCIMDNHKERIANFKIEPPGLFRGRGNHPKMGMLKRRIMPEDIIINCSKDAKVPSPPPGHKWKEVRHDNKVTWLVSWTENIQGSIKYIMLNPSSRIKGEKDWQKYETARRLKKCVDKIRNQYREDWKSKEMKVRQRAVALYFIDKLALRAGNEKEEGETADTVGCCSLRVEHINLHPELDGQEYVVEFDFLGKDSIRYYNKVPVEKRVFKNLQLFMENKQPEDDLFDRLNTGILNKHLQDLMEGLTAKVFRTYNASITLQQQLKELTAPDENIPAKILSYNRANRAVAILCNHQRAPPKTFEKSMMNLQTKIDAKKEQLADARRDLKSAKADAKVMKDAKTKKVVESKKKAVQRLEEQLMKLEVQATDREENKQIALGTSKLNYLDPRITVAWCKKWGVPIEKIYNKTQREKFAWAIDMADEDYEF
Procedure: (§1) Human ToPI Inhibition in Plasmid DNA Relaxation Assays with Recombinant TopI (In Vitro) or MCF7 Cell Lysates (Ex Vivo)
(§2) Relaxation of supercoiled pBSSK(^+) DNA with recombinant human TopI (HTopI) at a molar ratio of 3:1 at 37° C. for 30 minutes was performed

[2] = Caco-2 permeability (21 day culture of Caco-2 cell monolayer); type: in vitro ADME; settings: human; for recovery at 120 min, 10 μM: Caco-2, pH 7.4, Caco-2
In short: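 Caco-2 monolayers grown 21 days, used when TEER >230 ohm·cm2; compound at 10 μM final in HBSS pH 7.4 dosed apical or basal, receiver HBSS with 2% BSA, sampled at 120 min at 37° C. Bidirectional transport quantified by LC-MS/MS against single-point calibration.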

[3] = target: T2, endogenous TopI from the whole cell extracts of human breast adenocarcinoma (MCF7) cell (Homo sapiens, UniProt P11387); test: Plasmid DNA relaxation assay with MCF7 cell lysates (ex vivo); type: biochemical; settings: MCF7 cell lysates as source of TopI
T2 construct: TopI enzyme in the extract is conserved in its native structure among a plethora of other cellular proteins; endogenous in cells; host or cells: MCF7 whole cell extract
T2 sequence (P11387 1-765): T1 sequence (P11387 1-765)
Procedure: as §1, §2
cellular extracts were utilized as a source of TopI (ex vivo) in plasmid DNA relaxation assays. TopI enzyme in the extract is conserved in its native structure among a plethora of other cellular proteins.

[4] = Lipophilicity assay (octanol/buffer Log D); settings: n-octanol/sodium phosphate buffer, pH 7.4
Procedure: 1.56 g NaH2PO4.2H2O was dissolved in 0.5 L water in a 1 L beaker. After adjusting pH to 7.4 using NaOH solution, the volume was made up to 1 L. Equal volumes of sodium phosphate buffer (10 mM, pH 7.4) and n-octanol were added to a separation funnel and mixed thoroughly by shaking and inverting the funnel several times. The two layers were allowed to separate for 2 days and then dispensed in two separate glass bottles. 10 mM stock solution was prepared in 100% DMSO and stored at 4° C. 500 μL of organic phase (1-octanol) was added to each well of a 2 mL deep well plate, followed by 500 μL of buffer and 15 μL of test substance was added. The plate was vortexed for 1 hr on a plate shaker at 1200 rpm. After incubation, the samples were allowed to equilibrate for 20 min and then centrifuged at 4000 rpm for 30 min for complete phase separation and analysed by LC-UV.
Log D=Log(area of octanol/area of buffer)
Mean, SD and % CV for each set of triplicates were calculated

[5] = Plasma stability assay; type: in vitro ADME; settings: pH 7.4, 37° C., 1 μM

IC50 [1]: 21 nM
efflux ratio at 120 min, 10 μM ([2]; Caco-2, pH 7.4): 4.54
recovery at 120 min, 10 μM ([2]; read-out: A to B % Recovery): 77.3%
recovery at 120 min, 10 μM ([2]; read-out: B to A % Recovery): 77.7%
Papp A→B at 120 min, 10 μM ([2]; pH 7.4, Caco-2, 10 μM, 120 min, read-out: Papp Apical to Basal): 6.47 ×10⁻⁶ cm/s
Papp B→A at 120 min, 10 μM ([2]; pH 7.4, Caco-2, 10 μM, 120 min, read-out: Papp Basal to Apical): 27.4 ×10⁻⁶ cm/s
IC50 [3]: 1830 nM
logD [4]: 3.51
Mean % remaining at 2 hrs in human Plasma [5]: 84.18%
SMILES: Nc1ccc(-c2ccc3ncc(-c4nnco4)c(NCCCn4ccnc4)c3c2)cn1 [Compound 24, N-(3-(1H-imidazol-1-yl)propyl)-6-(6-aminopyridin-3-yl)-3-(1,3,4-oxadiazol-2-yl)quinolin-4-amine]
